Tests used:
[1] = Oil component (base) solubility test; assay type: physicochemical; conditions: in propylene glycol fatty acid ester
Experimental: Oil Component (Base) Solubility Test
(75% humidity), and at 60° C.

[2] = system: IL-6 dependent RARα(+) human multiple myeloma cells U266; conditions: SCID mice, oral 10 mg/kg/day for 28 consecutive days, FIG. 2

| SMILES | solubility and stability in the dissolved solution [1] | growth of U266 cells (volume of tumor) [2] |
| --- | --- | --- |
| CC1(C)CCC(C)(C)c2cc(NC(=O)c3ccc(C(=O)O)cc3)ccc21 [Tamibarotene, 4-[(5,6,7,8-tetrahydro-5,5,8,8-tetramethyl-2-naphthalenyl)carbamoyl]benzoic acid] | optimum | – |
| CC1=C(/C=C/C(C)=C/C=C/C(C)=C/C(=O)O)C(C)(C)CCC1 [ATRA, all-trans retinoic acid] | – | inhibited the growth |

Reference: patent publication US8252837B2 (TMRC Co., Ltd., priority 2007, dated 2012)
